Results from US5167948A, “Diagnostic or radiotherapeutic composition comprising a hydrogen containing compound” (priority 1987, dated 1992).

Columns and labels:
[1] = Determination of the relaxation of the water protons (relaxation time T1, inversion recovery method); type: physicochemical; conditions: for T1: 2 millimolar solution in water, 89.55 MHz, room temp.
Description: Determination of the relaxation of the water protons by adding paramagnetic deuterated ferricinium compounds compared to the corresponding non-deuterated compounds. The following compounds are tested:
From the above compounds 2 millimolar solutions in water are prepared. Of these solutions the relaxation time T1 is determined at 89.55 MHz on a JEOL FX-90Q NMR spectrometer using the inversion recovery method (room temp.). In the experiments comprising in addition deuterium oxide, D2 O is added in a quantity of 1.0 mMole to a volume of 100 ml of the solution.

[2] = 103Ru-concentration in organs of rats after injection of Rc-amphetamine derivatives; type: in vivo; conditions: for 103Ru-concentration, brains / 103Ru-concentration, lungs / 103Ru-concentration, suprarenal glands: 0.5 μmol/kg; for D/H, brains / D/H, lungs / D/H, suprarenal glands: quotient deuterated / non-deuterated
Description: The above compounds are intravenously administered in doses of approx. 0.5 μmol/kg to two groups of each 4 rats. The compounds can be represented by the following formula: [drawing 7] After certain periods of time between 0 and 90 minutes after injection test animals are sacrificed and the ^103 Ru-concentration in the brains is determined. The results are graphically recorded in FIG. 1: the ^103 Ru-concentration (C) in the brains i.c. % dose/% body weight (% d/% wt), is plotted against the time (t) in min.
In the same way as described in Example X the effect of deuteration of N-methyl- and N,N-dimethylderivatives of ^103 Ru-labelled ruthenocene-amphetamine is investigated in vivo: groups of 3 or 4 rats as test animals; dose: 0.5 μmol/kg. After 15 or 20 minutes the ^103 Ru-concentration is determined in various organs of the rats, viz. brains, lungs and suprarenal glands, and presented in table B for the compounds tested. As will be apparent from the D/H value, i.e. the quotient of the ^103 Ru concentration of the deuterated compound and that of the non-deuterated compound, in all experiments except one (free amine-lungs) the affinity of the deuterated compounds to the organs is increased compared to the non-deuterated compounds.

[3] = tracer amounts, man; in words; cited from earlier work
[4] = + D2O, 1.0 mMole added to 100 ml of the solution

With F[B-](F)(F)F.[Fe+3].c1cc[cH-]c1.c1cc[cH-]c1 [(c), [(C5 H5)2 Fe]^+ BF4^-] the T1 [1] was 1.65 s and the T1 [1, 4] was 1.64 s.

With [103Ru+2].[2H]C([c-]1cccc1)C([2H])(C)N(C([2H])([2H])[2H])C([2H])([2H])[2H].c1cc[cH-]c1 (stereo not drawn) [--N,N-dimethyl D] the “103Ru-concentration, brains” value ([2]; 15 min.) was 3.33 % dosis/% body weight, the “103Ru-concentration, lungs” value ([2]; 15 min.) was 10.5 % dosis/% body weight and the “103Ru-concentration, suprarenal glands” value ([2]; 15 min.) was 11.9 % dosis/% body weight. The “D/H, brains” value ([2]; 15 min.) was 1.45, the “D/H, lungs” value ([2]; 15 min.) was 1.32 and the “D/H, suprarenal glands” value ([2]; 15 min.) was 1.57.

For [103Ru+2].[2H]C([c-]1cccc1)C([2H])(C)NC([2H])([2H])[2H].c1cc[cH-]c1 (stereo not drawn) [--N-methyl D], the “103Ru-concentration, brains” value ([2]; 15 min.) was 2.56 % dosis/% body weight, the “103Ru-concentration, lungs” value ([2]; 15 min.) was 11.3 % dosis/% body weight and the “103Ru-concentration, suprarenal glands” value ([2]; 15 min.) was 8.3 % dosis/% body weight. The “D/H, brains” value ([2]; 15 min.) was 1.12, the “D/H, lungs” value ([2]; 15 min.) was 1.26 and the “D/H, suprarenal glands” value ([2]; 15 min.) was 1.77.

For [2H]C([c-]1cccc1)C([2H])(C)N.[Ru+2].c1cc[cH-]c1 (stereo not drawn) [--NH2 D, ^103 Ru-1-ruthenocenyl-2-aminopropane-1,2-d2], the “103Ru-concentration, brains” value ([2]; 20 min.) was 2.56 % dosis/% body weight, the “103Ru-concentration, lungs” value ([2]; 20 min.) was 10.5 % dosis/% body weight and the “103Ru-concentration, suprarenal glands” value ([2]; 20 min.) was 6.2 % dosis/% body weight. The “D/H, brains” value ([2]; 20 min.) was 1.31, the “D/H, lungs” value ([2]; 20 min.) was 0.85 and the “D/H, suprarenal glands” value ([2]; 20 min.) was 1.29. The “D/H, lungs” value ([2]; 20 min., listed as free amine) was “decreased value”.

With [2H]O[2H] [D2 O, deuterium oxide] the “effect of D2O on relaxation time” value ([1]; in words, not bound to the complex) was “does not change the relaxation time significantly”.

In the case of [2H]C([2H])([2H])CC(=O)C(CC(C)N(C)C)(c1ccccc1)c1ccccc1 (stereo not drawn) [methadone-d3], the “metabolic behaviour compared with the unmodified drug” value [3] is listed as “substantially identical metabolic behaviour”.

Work on [(C5 D5)2 Fe]^+ BF4^- [(d)] yielded a T1 [1] of 1.04 s.

[(CH3 -C5 D4)2 Fe]^+ BF4^- [(b)] showed a T1 [1] of 1.23 s.

For [(CH3 -C5 H4)2 Fe]^+ BF4^- [(a)], the T1 [1] was 1.62 s and the T1 [1, 4] was 1.60 s.
